# Measured values: patent US10799590B2, “Compositions containing a bitter tastant and at least one sophorolipid, and methods of reducing bitter taste attributed to a bitter tastant in an edible composition” (The United States of America, as Represented by the …, priority 2015, dated 2020)
# Test system: cultured human fungiform taste papillae cells (HBO cells)
# Test: Calcium imaging of cultured human fungiform taste papillae (HBO) cells: response frequency, estimation of sweet potency
# Format: cell-based
# From the text: In vitro cell-based assay of sweet property. Establishment and maintenance of cultures of human fungiform taste papillae cells (HBO cells): We previously established the current proprietary protocol (Ozdener, H., et al., Chem. Senses, 31(3): 279-90 (2006); Ozdener, M. H., et al., Chem. Senses, 36(7): 601-12 (2011); Ozdener, H., et al., Isolation and culture of human fungiform taste papillae cells, J. Vis. Exp., 2012 May 17;(63):e3730) which allowed us to culture human fungiform taste papillae cells retaining their physiological and molecular characteristics for more than a year. […] The human fungiform taste papillae cells were cultured according to protocols that we have published (Ozdener et al. 2006, Ozdener et al. 2011). Human fungiform taste papillae were removed and immediately placed into an isolation solution followed by enzymatic digestion. Digested fungiform papillae were then gently minced with a surgical razor and seeded on collagen type-1 coated coverslips and incubated at 36° C. in a humidified environment containing 5% CO2. The fungiform taste papillae cells were cultured in Iscove's Modified Dulbecco's medium containing 10% fetal bovine serum, 1:5 ratio of MCDB (Molecular, Cellular, and Developmental Biology) 153 medium, and a triple cocktail of antibiotics (100 U/mL/100 μg/mL, penicillin/streptomycin, and 0.5 μg/mL fungizone). Culture medium was replaced every 5-7 days by one-third of fresh culture medium. Human fungiform taste papillae cells have been maintained in culture for a period of more than 1 year without loss of viability and with retention of the molecular and biochemical properties of acutely isolated taste cells (Ozdener et al., 2011). Calcium imaging: Cultured taste cells grown for 3-4 days glass coverslips which were loaded for 30-60 min with the calcium sensitive dye fura-2 by incubating the cells in Ringer solution (145 mM NaCl, 5 mM KCl, 1 mM MgCl2, 1 mM CaCl2, 1 mM Na-pyruvate, 20 mM Hepes-Na and Cellobiose 15 mM, pH 7.2 with osmolarity adjusted to 300-310 by 5M NaCl) supplemented with […] (Molecular Probes Inc., Eugene, Oreg.) and 10 mg/ml Pluronic® F127 (Molecular Probes Inc.). Coverslips were then placed in a recording chamber and continuously bathed with Ringer solution superfusion. Stimuli were dissolved in Ringer and then pH and osmolarity readjusted if needed. Cells were exposed to sweet ([…]), bitter mixture (PTC (phenylthiocarbamide)) 2mM+Salicin 5 mM+Denatonium 2 mM), guaifenesin (GF, 3 mM) and acetaminophen (APAP, 3 mM), and various sophorolipids stimuli: sophorose, sophorolipid palmitic acid, sophorolipid stearic acid, sophorolipid oleic acid. […]
structure (smiles),measurement,setting,value
"OC[C@H]1O[C@@H](O[C@@H]2[C@@H](O)[C@H](O)[C@@H](CO)O[C@H]2O)[C@H](O)[C@@H](O)[C@@H]1O [Sophorose, 2-O-β-D-glucopyranosyl-β-D glucopyranose]",%-responsive cells,"cultured human taste cells, concentration 292 uM",16.05%
same,Concentration adjusted response frequency,"tested at 292 uM, adjusted against sucralose 5 mM",274.89
